Values after ≈ are worked out from the molar mass of the structure shown. Where two headings read alike, the source gives them in different places.
Experiments:
[1] = test system: Staph. aureus 209-P; experiment: Antibacterial activities, MIC; type: cell-based
[2] = in vivo; conditions: mouse, iv
[3] = test system: Kleb Pneumoniae EK-6; experiment: Antibacterial activities, MIC; type: cell-based
[4] = test system: Pseud. aeruginosa EP-01; experiment: Antibacterial activities, MIC; type: cell-based
[5] = test system: Escher. coli NIHJ; experiment: Antibacterial activities, MIC; type: cell-based
[6] = test system: Ser. marcescens ES-75; experiment: Antibacterial activities, MIC; type: cell-based
[7] = test system: Morg. morganii EP-14; experiment: Antibacterial activities, MIC; type: cell-based
[8] = Staphylococcus aureus, read-out: MIC
[9] = Pseudomonas aeruginosa, EP01, Pseud. aeruginosa EP-01, read-out: MIC
[10] = Escherichia coli, read-out: MIC
[11] = Serratia marcescens, ES75, read-out: MIC
[12] = Morganella morganii, EP14, Morg. morganii EP-14, read-out: MIC

SMILES: CO/N=C(\C(=O)N[C@@H]1C(=O)N2C(C(=O)[O-])=C(/C=C/C[N+](C)(C)CC(N)=O)CS[C@H]12)c1nsc(N)n1 [Example 1, 7β-[2-(5-Amino-1,2,4-thiadiazol-3-yl)-(Z)-2-methoxyiminoacetamido]-3-[(E)-3-(carbamoylmethyldimethylammonio)-1-propen-1-yl)-3-cephem-4-carboxylate]
- MIC [1, 8]: 0.4 µg/mL (≈ 0.763 µM)
- LD50 [2]: ≥ 3000 mg/kg
- MIC ([3]; read-out: MIC): 0.05 µg/mL (≈ 0.0953 µM)
- MIC [4, 9]: 0.8 µg/mL (≈ 1.53 µM)
- MIC [5, 10]: 0.05 µg/mL (≈ 0.0953 µM)
- MIC [6, 11]: 0.1 µg/mL (≈ 0.191 µM)
- MIC [7, 12]: 0.05 µg/mL (≈ 0.0953 µM)

SMILES: CO/N=C(\C(=O)N[C@@H]1C(=O)N2C(C(=O)[O-])=C(/C=C/C[N+](C)(C)Cc3nnco3)CS[C@H]12)c1nsc(N)n1 [Example 20, 7β-[2-(5-Amino-1,2,4-thiadiazol-3-yl)-(Z)-2-methoxyiminoacetamido]-3-[(E)-3-[(1,3,4-oxadiazol-2-yl)methyldimethylammonio]-1-propen-1-yl]-3-cephem-4-carboxylate]
- MIC [1, 8]: 0.4 µg/mL (≈ 0.728 µM)
- LD50 [2]: ≥ 3000 mg/kg
- MIC ([3]; read-out: MIC): ≤ 0.025 µg/mL
- MIC [4, 9]: 0.8 µg/mL (≈ 1.46 µM)
- MIC [5, 10]: ≤ 0.025 µg/mL
- MIC [6, 11]: 0.1 µg/mL (≈ 0.182 µM)
- MIC [7, 12]: 0.05 µg/mL (≈ 0.091 µM)

SMILES: CO/N=C(\C(=O)N[C@@H]1C(=O)N2C(C(=O)[O-])=C(/C=C/C[N+]3(C)CCN(C=N)CC3)CS[C@H]12)c1nsc(N)n1 [Example 28, 7β-[2-(5-Amino-1,2,4-thiadiazol-3-yl)-(Z)-2-methoxyiminoacetamido]-3-[(E)-3-(1-methyl-4-formimidoyl-1-piperazinio)-1-propen-1-yl]-3-cephem-4-carboxylate]
- MIC [1, 8]: 0.4 µg/mL (≈ 0.728 µM)
- MIC ([3]; read-out: MIC): 0.1 µg/mL (≈ 0.182 µM)
- MIC [4, 9]: 1.56 µg/mL (≈ 2.84 µM)
- MIC [5, 10]: 0.05 µg/mL (≈ 0.091 µM)
- MIC [6, 11]: 0.2 µg/mL (≈ 0.364 µM)
- MIC [7, 12]: 0.1 µg/mL (≈ 0.182 µM)

SMILES: CO/N=C(\C(=O)N[C@@H]1C(=O)N2C(C(=O)[O-])=C(/C=C/C[N+]3(C)CCN(C(N)=O)CC3)CS[C@H]12)c1nsc(N)n1 [Example 29, 7β-[2-(5-Amino-1,2,4-thiadiazol-3-yl)-(Z)-2-methoxyiminoacetamido]-3-[(E)-3-(1-methyl-4-carbamoyl-1-piperazinio)-1-propen-1-yl]-3-cephem-4-carboxylate]
- MIC [1, 8]: 0.4 µg/mL (≈ 0.707 µM)
- MIC ([3]; read-out: MIC): 0.05 µg/mL (≈ 0.0884 µM)
- MIC [4, 9]: 1.56 µg/mL (≈ 2.76 µM)
- MIC [5, 10]: 0.05 µg/mL (≈ 0.0884 µM)
- MIC [6, 11]: 0.1 µg/mL (≈ 0.177 µM)
- MIC [7, 12]: 0.05 µg/mL (≈ 0.0884 µM)

SMILES: CO/N=C(\C(=O)N[C@@H]1C(=O)N2C(C(=O)[O-])=C(/C=C/C[N+]3(C)CCS(=O)(=O)CC3)CS[C@H]12)c1nsc(N)n1 [Example 31, 7β-[2-(5-Amino-1,2,4-thiadiazol-3-yl)-(Z)-2-methoxyiminoacetamido]-3-[(E)-3-(1,1-dioxo-4-methyl-4-thiomorpholinio)-1-propen-1-yl]-3-cephem-4-carboxylate]
- MIC [1, 8]: 0.4 µg/mL (≈ 0.7 µM)
- MIC ([3]; read-out: MIC): ≤ 0.025 µg/mL
- MIC [4, 9]: 0.8 µg/mL (≈ 1.4 µM)
- MIC [5, 10]: 0.05 µg/mL (≈ 0.0875 µM)
- MIC [6, 11]: 0.1 µg/mL (≈ 0.175 µM)
- MIC [7, 12]: 0.05 µg/mL (≈ 0.0875 µM)

SMILES: CO/N=C(\C(=O)N[C@@H]1C(=O)N2C(C(=O)[O-])=C(/C=C/C[N+]34CCN(CC3)CC4)CS[C@H]12)c1nsc(N)n1 [Example 32, 7β-[2-(5-Amino-1,2,4-thiadiazol-3-yl)-(Z)-2-methoxyiminoacetamido]-3-[(E)-3-(1,4-diazabicyclo[2,2,2]octan-1-io)-1-propen-1-yl]-3-cephem-4-carboxylate]
- MIC [1, 8]: 0.2 µg/mL (≈ 0.374 µM)
- MIC ([3]; read-out: MIC): ≤ 0.025 µg/mL
- MIC [4, 9]: 0.8 µg/mL (≈ 1.5 µM)
- MIC [5, 10]: ≤ 0.025 µg/mL
- MIC [6, 11]: 0.1 µg/mL (≈ 0.187 µM)
- MIC [7, 12]: 0.05 µg/mL (≈ 0.0935 µM)

SMILES: CO/N=C(\C(=O)N[C@@H]1C(=O)N2C(C(=O)[O-])=C(/C=C/C[N+]3(C)CCN(C)CC3)CS[C@H]12)c1nsc(N)n1 [Example 33, 7β-[2-(5-Amino-1,2,4-thiadiazol-3-yl)-(Z)-2-methoxyiminoacetamido]-3-[(E)-3-(1,4-dimethyl-1-piperazinio)-1-propen-1-yl]-3-cephem-4-carboxylate]
- MIC [1, 8]: 0.2 µg/mL (≈ 0.373 µM)
- LD50 [2]: ≥ 3000 mg/kg
- MIC ([3]; read-out: MIC): ≤ 0.025 µg/mL
- MIC [4, 9]: 1.56 µg/mL (≈ 2.91 µM)
- MIC [5, 10]: ≤ 0.025 µg/mL
- MIC [6, 11]: 0.05 µg/mL (≈ 0.0932 µM)
- MIC [7, 12]: ≤ 0.025 µg/mL

SMILES: CO/N=C(\C(=O)N[C@@H]1C(=O)N2C(C(=O)[O-])=C(/C=C/C[N+]3(C)CC=C(C(N)=O)CC3)CS[C@H]12)c1nsc(N)n1 (stereo partly drawn) [Example 34, 7β-[2-(5-Amino-1,2,4-thiadiazol-3-yl)-(Z)-2-methoxyiminoacetamido]-3-[(E)-3-(1-methyl-4-carbamoyl-1,2,3,6-tetrahydropyridinio)-1-propen-1-yl]-3-cephem-4-carboxylate]
- MIC [1, 8]: 0.2 µg/mL (≈ 0.355 µM)
- MIC ([3]; read-out: MIC): 0.1 µg/mL (≈ 0.178 µM)
- MIC [4, 9]: 0.8 µg/mL (≈ 1.42 µM)
- MIC [5, 10]: ≤ 0.025 µg/mL
- MIC [6, 11]: 0.1 µg/mL (≈ 0.178 µM)
- MIC [7, 12]: 0.05 µg/mL (≈ 0.0889 µM)

SMILES: CO/N=C(\C(=O)N[C@@H]1C(=O)N2C(C(=O)[O-])=C(/C=C/C[N+](C)(C)CCC(N)=O)CS[C@H]12)c1nsc(N)n1 [Example 35, 7β-[2-(5-Amino-1,2,4-thiadiazol-3-yl)-(Z)-2-methoxyiminoacetamido]-3-[(E)-3-[N,N-dimethyl-N-(2-carbamoylethyl)ammonio]-1-propen-1-yl]-3-cephem-4-carboxylate]
- MIC [1, 8]: 0.2 µg/mL (≈ 0.371 µM)
- MIC ([3]; read-out: MIC): 0.1 µg/mL (≈ 0.186 µM)
- MIC [4, 9]: 0.8 µg/mL (≈ 1.49 µM)
- MIC [5, 10]: ≤ 0.025 µg/mL
- MIC [6, 11]: 0.05 µg/mL (≈ 0.0928 µM)
- MIC [7, 12]: 0.05 µg/mL (≈ 0.0928 µM)

SMILES: CO/N=C(\C(=O)N[C@@H]1C(=O)N2C(C(=O)[O-])=C(/C=C/C[N+]34CCCN3CCC4)CS[C@H]12)c1nsc(N)n1 [Example 38, 7β-[2-(5-Amino-1,2,4-thiadiazol-3-yl)-(Z)-2-methoxyiminoacetamido]-3-[(E)-3-(1,5-diazabicyclo[3,3,0]octan-1-io)-1-propen-1-yl]-3-cephem-4-carboxylate]
- MIC [1, 8]: 0.2 µg/mL (≈ 0.374 µM)
- MIC ([3]; read-out: MIC): ≤ 0.025 µg/mL
- MIC [4, 9]: 1.56 µg/mL (≈ 2.92 µM)
- MIC [5, 10]: ≤ 0.025 µg/mL
- MIC [6, 11]: 0.1 µg/mL (≈ 0.187 µM)
- MIC [7, 12]: 0.05 µg/mL (≈ 0.0935 µM)

SMILES: CO/N=C(\C(=O)N[C@@H]1C(=O)N2C(C(=O)[O-])=C(/C=C/C[N+](C)(C)[C@H](C)C(N)=O)CS[C@H]12)c1nsc(N)n1 [Example 42]
- MIC [1, 8]: 0.2 µg/mL (≈ 0.371 µM)
- MIC ([3]; read-out: MIC): ≤ 0.025 µg/mL
- MIC [4, 9]: 0.8 µg/mL (≈ 1.49 µM)
- MIC [5, 10]: 0.05 µg/mL (≈ 0.0928 µM)
- MIC [6, 11]: 0.1 µg/mL (≈ 0.186 µM)
- MIC [7, 12]: 0.05 µg/mL (≈ 0.0928 µM)

SMILES: CO/N=C(\C(=O)N[C@@H]1C(=O)N2C(C(=O)[O-])=C(/C=C/C[N+]3(C)CC(O)CC3CO)CS[C@H]12)c1nsc(N)n1 (stereo partly drawn) [Example 43]
- MIC [1, 8]: 0.4 µg/mL (≈ 0.723 µM)
- MIC ([3]; read-out: MIC): ≤ 0.025 µg/mL
- MIC [4, 9]: 1.56 µg/mL (≈ 2.82 µM)
- MIC [5, 10]: 0.05 µg/mL (≈ 0.0903 µM)
- MIC [6, 11]: 0.05 µg/mL (≈ 0.0903 µM)
- MIC [7, 12]: ≤ 0.025 µg/mL

SMILES: CO/N=C(\C(=O)N[C@@H]1C(=O)N2C(C(=O)[O-])=C(/C=C/C[N+]3(CCO)CCC(C(N)=O)CC3)CS[C@H]12)c1nsc(N)n1 (stereo partly drawn) [Example 44-1]
- MIC [1, 8]: 0.4 µg/mL (≈ 0.673 µM)
- MIC ([3]; read-out: MIC): ≤ 0.025 µg/mL
- MIC [4, 9]: 0.8 µg/mL (≈ 1.35 µM)
- MIC [5, 10]: 0.05 µg/mL (≈ 0.0841 µM)
- MIC [6, 11]: 0.05 µg/mL (≈ 0.0841 µM)
- MIC [7, 12]: 0.05 µg/mL (≈ 0.0841 µM)

SMILES: CO/N=C(\C(=O)N[C@@H]1C(=O)N2C(C(=O)[O-])=C(/C=C/C[N+]3(CCO)CCC(C(N)=O)CC3)CS[C@H]12)c1nsc(N)n1 (stereo partly drawn) [Example 44-2]
- MIC [1]: 0.4 µg/mL (≈ 0.673 µM)
- MIC [3]: ≤ 0.025 µg/mL
- MIC ([4]; Pseud. aeruginosa EP-01): 0.8 µg/mL (≈ 1.35 µM)
- MIC [5]: ≤ 0.025 µg/mL
- MIC [6]: 0.05 µg/mL (≈ 0.0841 µM)
- MIC ([7]; Morg. morganii EP-14): ≤ 0.025 µg/mL

SMILES: CO/N=C(\C(=O)N[C@@H]1C(=O)N2C(C(=O)[O-])=C(/C=C/C[N+]3(CC(N)=O)CC[C@@H](O)C3)CS[C@H]12)c1nsc(N)n1 (stereo partly drawn) [Example 45-1]
- MIC [1, 8]: 0.4 µg/mL (≈ 0.706 µM)
- MIC ([3]; read-out: MIC): ≤ 0.025 µg/mL
- MIC [4, 9]: 0.8 µg/mL (≈ 1.41 µM)
- MIC [5, 10]: ≤ 0.025 µg/mL
- MIC [6, 11]: 0.05 µg/mL (≈ 0.0882 µM)
- MIC [7, 12]: ≤ 0.025 µg/mL

— patent US5373000A, “7Beta-(thiadiazolyl)-2-iminoacetamido-3cephem compounds” (Eisai Co., Ltd., priority 1985, dated 1994)
